From US20250114486A1, “MARKED FATTY ACID DERIVATIVE, PRECURSOR COMPOUND THEREOF, AND USE THEREOF IN CONTRAST AGENT” (BEIJING NORMAL UNIVERSITY, priority 2022, published 2025)
Each block holds one compound with its values, some of them ahead of it.

Assay: In vivo biodistribution of radioactive ^99mTc complexes in female SD rats
Set-up: species or system female Sprague-Dawley (SD) rats
Conditions: for Biodistribution: Large Intestine / Biodistribution: Small Intestine / Biodistribution: Stomach: unit % ID; for absolute myocardial uptake peak value: peak at 60 min post-injection
Description: Female SD rats (180-220 g, n=3) were fasted for 12 h before the experiment, and the purified radioactive 99mTc complexes 78-81 were prepared into physiological saline (containing 10% ethanol) solutions of about 250-350 μCi/mL. 200 μL of the above solution was injected into the tail vein of female SD rats, and the rats were killed by cervical dislocation at five time points, 15, 30, 60, 120 and 240 min after the tail vein injection. The blood, brain, heart, liver, spleen, lung, kidney, muscle, bone, large intestine, small intestine, stomach and tail were collected, weighed and counted, and the count distribution of each tissue and organ was calculated (unit: % ID/g, the unit of large intestine, small intestine and stomach is % ID), and the data are the mean±standard deviation of three mice in each phase. At the same time, 200 μL of the above solution was diluted to 20 mL, which was used as the % ID without deducting the tail count.

Biodistribution: Blood (15 min post-injection): 0.018 ± 0.001 ID %/g
Biodistribution: Bone (15 min post-injection): 0.24 ± 0.05 ID %/g
Biodistribution: Heart (15 min post-injection): 3.37 ± 0.15 ID %/g
Biodistribution: Kidney (15 min post-injection): 9.30 ± 0.20 ID %/g
Biodistribution: Liver (15 min post-injection): 1.79 ± 0.26 ID %/g
Biodistribution: Lungs (15 min post-injection): 0.86 ± 0.17 ID %/g
Biodistribution: Muscle (15 min post-injection): 0.72 ± 0.11 ID %/g
Biodistribution: Spleen (15 min post-injection): 0.70 ± 0.06 ID %/g
Heart-to-Blood ratio (15 min post-injection): 192.24 ± 13.25
Heart-to-Liver ratio (15 min post-injection): 1.93 ± 0.26
Heart-to-Lungs ratio (15 min post-injection): 4.44 ± 0.26
absolute myocardial uptake value (15 min post-injection): 3.37±0.15 % ID/g
Biodistribution: Large Intestine (15 min post-injection): 6.53 ± 0.73 % ID
Biodistribution: Small Intestine (15 min post-injection): 12.23 ± 2.35 % ID
Biodistribution: Stomach (15 min post-injection): 1.05 ± 0.04 % ID
Biodistribution: Blood (30 min post-injection): 0.016 ± 0.002 ID %/g
Biodistribution: Bone (30 min post-injection): 0.15 ± 0.01 ID %/g
Biodistribution: Heart (30 min post-injection): 3.45 ± 0.19 ID %/g
Biodistribution: Kidney (30 min post-injection): 5.21 ± 1.54 ID %/g
Biodistribution: Liver (30 min post-injection): 1.11± 0.16 ID %/g
Biodistribution: Lungs (30 min post-injection): 0.575 ± 0.002 ID %/g
Biodistribution: Muscle (30 min post-injection): 0.37 ± 0.06 ID %/g
Biodistribution: Spleen (30 min post-injection): 0.88 ± 0.13 ID %/g
Heart-to-Blood ratio (30 min post-injection): 220.61±45.73
Heart-to-Liver ratio (30 min post-injection): 3.30 ± 0.42
Heart-to-Lungs ratio (30 min post-injection): 6.00 ± 0.31
absolute myocardial uptake value (30 min post-injection): 3.45±0.19 % ID/g
Biodistribution: Large Intestine (30 min post-injection): 14.01 ± 1.87 % ID
Biodistribution: Small Intestine (30 min post-injection): 17.82 ± 0.19 % ID
Biodistribution: Stomach (30 min post-injection): 0.65 ± 0.11 % ID
Biodistribution: Blood (60 min post-injection): 0.009 ± 0.001 ID %/g
Biodistribution: Bone (60 min post-injection): 0.14 ± 0.01 ID %/g
Biodistribution: Heart (60 min post-injection): 3.98 ± 0.25 ID %/g
Biodistribution: Kidney (60 min post-injection): 4.90 ± 0.17 ID %/g
Biodistribution: Liver (60 min post-injection): 0.60 ± 0.12 ID %/g
Biodistribution: Lungs (60 min post-injection): 0.28 ± 0.07 ID %/g
Biodistribution: Muscle (60 min post-injection): 0.77 ± 0.13 ID %/g
Biodistribution: Spleen (60 min post-injection): 0.34 ± 0.04 ID %/g
Heart-to-Blood ratio (60 min post-injection): 449.52±67.26
Heart-to-Lungs ratio (60 min post-injection): 14.35 ± 2.38
absolute myocardial uptake value (60 min post-injection): 3.98±0.25 % ID/g
Biodistribution: Large Intestine (60 min post-injection): 6.44 ± 0.70 % ID
Biodistribution: Small Intestine (60 min post-injection): 15.98 ± 1.55 % ID
Biodistribution: Stomach (60 min post-injection): 0.46 ± 0.11 % ID
Biodistribution: Blood (120 min post-injection): 0.020 ± 0.004 ID %/g
Biodistribution: Bone (120 min post-injection): 0.12 ± 0.01 ID %/g
Biodistribution: Heart (120 min post-injection): 2.83 ± 0.25 ID %/g
Biodistribution: Kidney (120 min post-injection): 4.03 ± 0.24 ID %/g
Biodistribution: Liver (120 min post-injection): 0.36 ± 0.05 ID %/g
Biodistribution: Lungs (120 min post-injection): 0.27 ± 0.03 ID %/g
Biodistribution: Muscle (120 min post-injection): 0.60 ± 0.11 ID %/g
Biodistribution: Spleen (120 min post-injection): 0.25 ± 0.04 ID %/g
Heart-to-Blood ratio (120 min post-injection): 146.14±22.27
Heart-to-Liver ratio (120 min post-injection): 7.91 ± 0.50
Heart-to-Lungs ratio (120 min post-injection): 10.43 ± 0.62
absolute myocardial uptake value (120 min post-injection): 2.83±0.25 % ID/g
Biodistribution: Large Intestine (120 min post-injection): 19.30 ± 1.11 % ID
Biodistribution: Small Intestine (120 min post-injection): 24.46 ± 3.26 % ID
Biodistribution: Stomach (120 min post-injection): 0.92 ± 0.03 % ID
Biodistribution: Blood (240 min post-injection): 0.016 ± 0.002 ID %/g
Biodistribution: Bone (240 min post-injection): 0.036 ± 0.005 ID %/g
Biodistribution: Heart (240 min post-injection): 2.29 ± 0.05 ID %/g
Biodistribution: Kidney (240 min post-injection): 2.07 ± 0.17 ID %/g
Biodistribution: Liver (240 min post-injection): 0.17 ± 0.03 ID %/g
Biodistribution: Lungs (240 min post-injection): 0.15 ± 0.02 ID %/g
Biodistribution: Muscle (240 min post-injection): 0.48 ± 0.06 ID %/g
Biodistribution: Spleen (240 min post-injection): 0.12 ± 0.02 ID %/g
Heart-to-Blood ratio (240 min post-injection): 143.42±25.82
Heart-to-Liver ratio (240 min post-injection): 11.82 ± 1.15
Heart-to-Lungs ratio (240 min post-injection): 15.97 ± 2.41
absolute myocardial uptake value (240 min post-injection): 2.29±0.05 % ID/g
Biodistribution: Large Intestine (240 min post-injection): 27.81 ± 4.20 % ID
Biodistribution: Small Intestine (240 min post-injection): 13.00 ± 1.55 % ID
Biodistribution: Stomach (240 min post-injection): 0.30 ± 0.08 % ID
absolute myocardial uptake peak value: 3.98±0.25 % ID/g
Compound: COC(C)(C)C[N+]#[C][99Tc-5]([C]#[N+]CC(C)(C)OC)([C]#[N+]CC(C)(C)OC)([C]#[N+]CC(C)(C)OC)([C]#[N+]CC(C)(C)OC)[C]#[N+]CC(C)(C)OCCCCCCSCCCCC(=O)O [^99mTc complex 81]
myocardial absolute uptake peak value (assessment): close to the corresponding value of myocardial perfusion imaging agent ^99mTc-MIBI

Biodistribution: Blood (15 min post-injection): 0.11 ± 0.02 ID %/g
Biodistribution: Bone (15 min post-injection): 0.13 ± 0.02 ID %/g
Biodistribution: Brain (15 min post-injection): 0.021 ± 0.005 ID %/g
Biodistribution: Heart (15 min post-injection): 1.50 ± 0.27 ID %/g
Biodistribution: Kidney (15 min post-injection): 4.87 ± 0.72 ID %/g
Biodistribution: Liver (15 min post-injection): 1.28 ± 0.19 ID %/g
Biodistribution: Lungs (15 min post-injection): 0.30 ± 0.06 ID %/g
Biodistribution: Muscle (15 min post-injection): 0.24 ± 0.06 ID %/g
Biodistribution: Spleen (15 min post-injection): 0.52 ± 0.10 ID %/g
Heart-to-Blood ratio (15 min post-injection): 13.99 ± 3.55
Heart-to-Liver ratio (15 min post-injection): 1.22 ± 0.33
Heart-to-Lungs ratio (15 min post-injection): 5.16 ± 0.69
absolute myocardial uptake value (15 min post-injection): 1.50±0.27 % ID/g
Biodistribution: Large Intestine (15 min post-injection): 0.76 ± 0.20 % ID
Biodistribution: Small Intestine (15 min post-injection): 14.70 ± 0.78 % ID
Biodistribution: Stomach (15 min post-injection): 0.51 ± 0.05 % ID
Biodistribution: Blood (30 min post-injection): 0.09 ± 0.01 ID %/g
Biodistribution: Bone (30 min post-injection): 0.09 ± 0.01 ID %/g
Biodistribution: Brain (30 min post-injection): 0.012 ± 0.005 ID %/g
Biodistribution: Heart (30 min post-injection): 2.24 ± 0.31 ID %/g
Biodistribution: Kidney (30 min post-injection): 3.37 ± 0.38 ID %/g
Biodistribution: Liver (30 min post-injection): 1.38 ± 0.16 ID %/g
Biodistribution: Lungs (30 min post-injection): 0.27 ± 0.03 ID %/g
Biodistribution: Muscle (30 min post-injection): 0.81 ± 0.14 ID %/g
Biodistribution: Spleen (30 min post-injection): 0.16 ± 0.01 ID %/g
Heart-to-Blood ratio (30 min post-injection): 25.88±5.10
Heart-to-Liver ratio (30 min post-injection): 1.63 ± 0.27
absolute myocardial uptake value (30 min post-injection): 2.24±0.31 % ID/g
Biodistribution: Large Intestine (30 min post-injection): 12.06 ± 3.78 % ID
Biodistribution: Small Intestine (30 min post-injection): 25.98 ± 3.13 % ID
Biodistribution: Stomach (30 min post-injection): 0.47 ± 0.15 % ID
Biodistribution: Blood (60 min post-injection): 0.04 ± 0.01 ID %/g
Biodistribution: Bone (60 min post-injection): 0.05 ± 0.01 ID %/g
Biodistribution: Brain (60 min post-injection): 0.009 ± 0.001 ID %/g
Biodistribution: Heart (60 min post-injection): 2.45 ± 0.35 ID %/g
Biodistribution: Kidney (60 min post-injection): 1.65 ± 0.53 ID %/g
Biodistribution: Liver (60 min post-injection): 0.66 ± 0.12 ID %/g
Biodistribution: Lungs (60 min post-injection): 0.14 ± 0.02 ID %/g
Biodistribution: Muscle (60 min post-injection): 0.47 ± 0.10 ID %/g
Biodistribution: Spleen (60 min post-injection): 0.09 ± 0.02 ID %/g
Heart-to-Blood ratio (60 min post-injection): 56.19±13.56
Heart-to-Liver ratio (60 min post-injection): 3.82±1.21
Heart-to-Lungs ratio (60 min post-injection): 17.12±3.09
absolute myocardial uptake value (60 min post-injection): 2.45±0.35 % ID/g
Biodistribution: Large Intestine (60 min post-injection): 16.70 ± 2.72 % ID
Biodistribution: Small Intestine (60 min post-injection): 22.54 ± 5.67 % ID
Biodistribution: Stomach (60 min post-injection): 0.19 ± 0.06 % ID
Biodistribution: Blood (120 min post-injection): 0.012 ± 0.002 ID %/g
Biodistribution: Bone (120 min post-injection): 0.04 ± 0.01 ID %/g
Biodistribution: Brain (120 min post-injection): 0.009 ± 0.002 ID %/g
Biodistribution: Heart (120 min post-injection): 1.54 ± 0.45 ID %/g
Biodistribution: Kidney (120 min post-injection): 0.65 ± 0.14 ID %/g
Biodistribution: Liver (120 min post-injection): 0.28 ± 0.01 ID %/g
Biodistribution: Lungs (120 min post-injection): 0.11 ± 0.03 ID %/g
Biodistribution: Muscle (120 min post-injection): 0.21 ± 0.05 ID %/g
Biodistribution: Spleen (120 min post-injection): 0.05 ± 0.01 ID %/g
Heart-to-Blood ratio (120 min post-injection): 118.25±44.79
Heart-to-Liver ratio (120 min post-injection): 5.55±1.38
Heart-to-Lungs ratio (120 min post-injection): 15.05±5.27
absolute myocardial uptake value (120 min post-injection): 1.54 0.45 % ID/g
Biodistribution: Large Intestine (120 min post-injection): 27.61 ± 2.20 % ID
Biodistribution: Small Intestine (120 min post-injection): 5.24 ± 0.78 % ID
Biodistribution: Stomach (120 min post-injection): 0.22 ± 0.03 % ID
Biodistribution: Blood (240 min post-injection): 0.025 ± 0.003 ID %/g
Biodistribution: Bone (240 min post-injection): 0.13 ± 0.03 ID %/g
Biodistribution: Brain (240 min post-injection): 0.007 ± 0.002 ID %/g
Biodistribution: Heart (240 min post-injection): 0.60 ± 0.04 ID %/g
Biodistribution: Kidney (240 min post-injection): 0.22 ± 0.02 ID %/g
Biodistribution: Liver (240 min post-injection): 0.24 ± 0.01 ID %/g
Biodistribution: Lungs (240 min post-injection): 0.09 ± 0.01 ID %/g
Biodistribution: Muscle (240 min post-injection): 0.27 ± 0.02 ID %/g
Biodistribution: Spleen (240 min post-injection): 0.11 ± 0.01 ID %/g
Heart-to-Blood ratio (240 min post-injection): 24.36±1.72
Heart-to-Liver ratio (240 min post-injection): 2.45 ± 0.18
Heart-to-Lungs ratio (240 min post-injection): 6.66±0.60
absolute myocardial uptake value (240 min post-injection): 0.60±0.04 % ID/g
Biodistribution: Large Intestine (240 min post-injection): 33.40 ± 4.10 % ID
Biodistribution: Small Intestine (240 min post-injection): 4.53 ± 0.88 % ID
Biodistribution: Stomach (240 min post-injection): 0.20 ± 0.02 % ID
absolute myocardial uptake peak value: 2.45±0.35 % ID/g
Compound: COC(C)(C)C[N+]#[C][99Tc-5]([C]#[N+]CC(C)(C)OC)([C]#[N+]CC(C)(C)OC)([C]#[N+]CC(C)(C)OC)([C]#[N+]CC(C)(C)OC)[C]#[N+]CC(C)(C)OCCCCSCCCCC(=O)O [^99mTc complex 79]

absolute myocardial uptake values (comparison with complexes 79-81): lower than the above values
heart-to-liver ratios (comparison with complexes 79-81): lower than the above values
Compound: COC(C)(C)C[N+]#[C][99Tc-5]([C]#[N+]CC(C)(C)OC)([C]#[N+]CC(C)(C)OC)([C]#[N+]CC(C)(C)OC)([C]#[N+]CC(C)(C)OC)[C]#[N+]CC(C)(C)OCCSCCCCC(=O)O [^99mTc complex 78]
